Patent US20250145637A1, “SULFONAMIDE DERIVATIVE, PREPARATION METHOD THEREFOR AND MEDICAL USE THEREOF” (Jiangsu Hengrui Pharmaceuticals Co. Ltd., priority 2021, published 2025)

Tested on: H3K23 acetylation in U-2 OS cells
Assay: U2OS cell H3K23 acetylation IF assay (immunofluorescence)
Format: cell-based
Details: Homo sapiens; for IC50: 24 h incubation, read-out: H3K23 ac/IC50; for Emax: inhibition of H3K23 acetylation, 24 h, read-out: Maximum inhibition rate/Imax %
Description: Test Example 3: U2OS Cell H3K23 Acetylation IF Assay (Immunofluorescence)
I. Reagents and Instruments
• 1. U-2 OS (ATCC HTB-96) • 2. Recombinant anti-histone H3 (acetyl K23) antibody (Abcam, ab177275) • 3. Goat anti-rabbit IgG (H+L), Superclonal™ recombinant secondary antibody, Alexa Fluor 488 (Thermofisher, A27034) • 4. Hoechst 33342 (Sigma-Aldrich, B2261-25MG) • 5. Assay plate, 96-well, black with clear bottom (Corning, 3603) • 6. Bovine serum albumin (BSA) (Sangon Biotech, A500023-0100) • 7. Methanol (GENERAL-REAGENT, G75851D) • 8. Tween-20 (Sangon, A100777-0500) • 9. Triton X-100 (Solarbio, T8200) • 10. PBS (Shanghai BasalMedia Technologies Co., Ltd., B320KJ) • 11. 20×PBS buffer (Sangon Biotech, B548117-0500) • 12. McCoy's 5A medium (Gibco, 16600082) • 13. 0.25% trypsin-EDTA (1×) (Gibco, 25200-072) • 14. Pen strep (Gibco, 15140-122) • 15. DPBS (1×) (Gibco, 14190-144) • 16. FBS (Gibco, 10091148) • 17. Automatic cell counter (Countstar, IC1000) • 18. Thermostatic incubator (Thermo, 1160) • 19. ImageXpress® Micro Confocal (Molecular Device)
a. Blocking buffer: PBS (Shanghai BasalMedia)+BSA (final concentration of 1%)+Triton X-100 (final concentration of 0.5%).
b. Wash buffer: PBS (20×PBS was diluted to 1×PBS)+Tween-20 (final concentration of 0.1%).
c. Primary antibody solution: Recombinant anti-histone H3 (acetyl K23) antibody was diluted in blocking buffer at a ratio of 1:1000.
d. Secondary antibody solutions: Goat anti-rabbit IgG (H+L), Superclonal™ recombinant secondary antibody, Alexa Fluor 488 was diluted in blocking buffer at a ratio of 1:1000, and Hoechst 33342 was diluted in blocking buffer at a ratio of 1:5000.
e. Compounds: initial concentration of 100 μM, 3-fold dilution, 9 gradient concentrations. All compound concentrations were diluted 500-fold with McCoy's 5A medium for later use.
2. Experimental Procedure
2.1. Cell Treatment (Day One)
a. The state of U-2 OS cells was observed under a microscope to make sure that the cell confluence was about 90%.
b. The cell supernatant was discarded. The cells were rinsed with DPBS once, and the DPBS was removed. The cells were digested with a proper amount of trypsin and left to stand at room temperature or 37° C. for 5 min.
c. The digestion was stopped with an equal volume of medium containing 10% FBS, and the cell suspension was collected and centrifuged at 300 g for 3 min. The cells were suspended in a proper amount of fresh medium.
d. The resulting cell suspension was collected and cell counting was performed.
e. The cell suspension was diluted and plated at 9000 cells/50 μL/well.
f. The wells on the periphery were blocked with 100 μL of PBS.
g. The cell culture plates were incubated overnight in a 37° C., 5% carbon dioxide incubator.
2.2. Compound Addition (Day Two)
a. 50 μL of diluted compound was added to the cell supernatant (50 μL/well) in each cell plate.
b. After the addition, the cell plates were incubated in a 37° C., 5% carbon dioxide incubator for 24 h.
2.3. Immunofluorescence Staining and Measurement (Day Three to Day Four)
a. After the 24-hour incubation, the cell plates were removed from the incubator. The medium was discarded, and plates were fixed with pre-cooled methanol at room temperature for 10 min.
b. The fixation buffer was discarded, and the plates were quickly washed with wash buffer 3 times and then slowly washed 3 times (5 min/wash).
c. The wash buffer was discarded, and blocking buffer was added. The plates were incubated at room temperature for 60 min.
d. The blocking buffer was discarded, and the prepared primary antibody solution was added. The plates were incubated overnight at 4° C.
e. The primary antibody solution was discarded, and the prepared secondary antibody solution was added. The plates were incubated at room temperature for 60 min.
f. The secondary antibody solution was discarded, and the plates were quickly washed with wash buffer 3 times and then slowly washed 5 times (5 min/wash).
g. The plates were tested on ImageXpress® Micro Confocal.
h. […]

SMILES: COc1cccc(OC)c1S(=O)(=O)Nc1noc2cc(Cn3cccn3)c3c(c12)OCC3 [Compound 1, N-(4-((1H-pyrazol-1-yl)methyl)-2,3-dihydrobenzofuro[7,6-d]isoxazol-8-yl)-2,6-dimethoxybenzenesulfonamide]
- IC50: 1.1 nM
- Emax: 102%

SMILES: COc1cccc(OC)c1S(=O)(=O)Nc1noc2cc(Cn3cccn3)c3c(c12)OCCC3 [Compound 2, N-(5-((1H-pyrazol-1-yl)methyl)-3,4-dihydro-2H-chromeno[8,7-d]isoxazol-9-yl)-2,6-dimethoxybenzenesulfonamide]
- IC50: 0.4 nM
- Emax: 98.5%

SMILES: COc1ccccc1S(=O)(=O)Nc1noc2cc(Cn3cccn3)c3c(c12)OCCC3 [Compound 3, N-(5-((1H-pyrazol-1-yl)methyl)-3,4-dihydro-2H-chromeno[8,7-d]isoxazol-9-yl)-2-methoxybenzenesulfonamide]
- IC50: 0.9 nM
- Emax: 106%

SMILES: COc1cccc(OC)c1S(=O)(=O)Nc1noc2cc(Cn3cccn3)c3c(c12)OC(F)(F)O3 [Compound 5, N-(4-((1H-pyrazol-1-yl)methyl)-2,2-difluoro-[1,3]dioxolo[4′,5′:5,6]benzo[1,2-d]isoxazol-8-yl)-2,6-dimethoxybenzenesulfonamide]
- IC50: 0.6 nM
- Emax: 104%

SMILES: CCOc1cc(C)ccc1S(=O)(=O)Nc1noc2cc(Cn3cccn3)c3c(c12)OCCC3 [Compound 7, N-(5-((1H-pyrazol-1-yl)methyl)-3,4-dihydro-2H-chromeno[8,7-d]isoxazol-9-yl)-2-ethoxy-4-methylbenzenesulfonamide]
- IC50: 1.4 nM
- Emax: 97.4%

SMILES: Cc1ccc(S(=O)(=O)Nc2noc3cc(Cn4cccn4)c4c(c23)OCCC4)c(OCC(F)(F)F)c1 [Compound 8, N-(5-((1H-pyrazol-1-yl)methyl)-3,4-dihydro-2H-chromeno[8,7-d]isoxazol-9-yl)-4-methyl-2-(2,2,2-trifluoroethoxy)benzenesulfonamide]
- IC50: 2.8 nM
- Emax: 99.4%

SMILES: COc1ccc(F)cc1S(=O)(=O)Nc1noc2cc(Cn3cccn3)c3c(c12)OCCC3 [Compound 9, N-(5-((1H-pyrazol-1-yl)methyl)-3,4-dihydro-2H-chromeno[8,7-d]isoxazol-9-yl)-5-fluoro-2-methoxybenzenesulfonamide]
- IC50: 0.75 nM
- Emax: 99.5%

SMILES: COc1cccc(OC(F)(F)F)c1S(=O)(=O)Nc1noc2cc(Cn3cccn3)c3c(c12)OCCC3 [Compound 10, N-(5-((1H-pyrazol-1-yl)methyl)-3,4-dihydro-2H-chromeno[8,7-d]isoxazol-9-yl)-2-methoxy-6-(trifluoromethoxy)benzenesulfonamide]
- IC50: 1.2 nM
- Emax: 106%

SMILES: COc1ccccc1S(=O)(=O)Nc1noc2cc(Cn3cccn3)c3c(c12)OCC3 [Compound 20, N-(4-((1H-pyrazol-1-yl)methyl)-2,3-dihydrobenzofuro[7,6-d]isoxazol-8-yl)-2-methoxybenzenesulfonamide]
- IC50: 4.6 nM
- Emax: 99.4%
